Reference: US10941152B2, “Pyrazole compounds as modulators of FSHR and uses thereof” (TOCOPHERX, INC., priority 2014, dated 2021)

Key:
FSHR = target: T1, FSHR (Homo sapiens, UniProt P23945); experiment: EC50 of cyclic AMP production in CHO FSHR cells + EC20 FSH (Assay A); type: cell-based; settings: cyclic AMP production in CHO FSHR cells + EC20 FSH (0.265 pM), HTRF
T1 construct: expressed in transfected cells; host or cells: CHO (Cho-FSHR-LUC-1-1-43)
T1 sequence (P23945 18-695): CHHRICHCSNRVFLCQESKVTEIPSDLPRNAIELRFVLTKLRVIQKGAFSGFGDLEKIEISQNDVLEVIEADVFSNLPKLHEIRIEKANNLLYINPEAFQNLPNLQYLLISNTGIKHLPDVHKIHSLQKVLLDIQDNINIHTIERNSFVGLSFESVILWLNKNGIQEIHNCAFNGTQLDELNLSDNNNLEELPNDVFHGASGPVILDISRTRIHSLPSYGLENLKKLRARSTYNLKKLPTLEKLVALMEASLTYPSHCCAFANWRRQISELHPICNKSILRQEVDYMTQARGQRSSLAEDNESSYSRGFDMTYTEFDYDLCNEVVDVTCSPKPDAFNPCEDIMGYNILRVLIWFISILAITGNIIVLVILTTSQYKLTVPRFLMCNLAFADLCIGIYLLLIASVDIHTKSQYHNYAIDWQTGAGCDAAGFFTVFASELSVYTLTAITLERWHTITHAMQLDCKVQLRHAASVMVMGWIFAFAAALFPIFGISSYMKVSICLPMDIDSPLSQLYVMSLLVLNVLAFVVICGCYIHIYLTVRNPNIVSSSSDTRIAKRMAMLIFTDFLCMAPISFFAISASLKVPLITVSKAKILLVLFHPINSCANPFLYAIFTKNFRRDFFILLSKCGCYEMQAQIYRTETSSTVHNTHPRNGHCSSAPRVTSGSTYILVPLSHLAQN
Description: Example 24. EC50 of cyclic AMP production in CHO FSHR cells+EC20 FSH (Assay A)
2500 Cho-FSHR-LUC-1-1-43 cells were plated per well in 5 al of phenol red free DMEM/F12+1% FBS. Cells were plated in 384 well, solid white low volume plates (Greiner 784075) by Multidrop. Cells were assayed by adding 100 al of 2×EC20 FSH/IBMX in DMEM/F12+0.1% BSA) by Multidrop to 2 al of test compound stamped in 384 well plates (compounds are diluted 1:50). The final FSH concentration was 0.265 pM, and the final IBMX concentration was 200 μM. The compound plate map was as follows: Column 1: 2 μl of DMSO; Column 2: 2 μl of DMSO; Columns 3-12 and 13-24: 2 μl of test compound, diluted 1:4 in 100% DMSO, or 2 μl of FSH, diluted 1:4 in DMEM/F12+0.1% BSA. The starting concentration for FSH was 50 nM (final concentration was 0.5 nM). Furthermore, Column 23 contained 2 μl of EC100 FSH reference (100×) (diluted in DMEM/F12+0.1% BSA) at a final concentration of 0.5 nM, and Column 24 contained 2 μl of 1 mM AS707664/2 reference compound 2. 5 μl of compound+EC20 FSH mixture were transferred to cell plates (1:2 dilution into 5 μl of cell media) The plates were incubated at 37° C. for 1 h. 10 μl of mixed HTRF (CisBio #62AM4PEC) reagents were added per well and incubated at room temperature for 1 h. The plates were read on Envision using the cAMP HTRF—low volume 384 well protocol. The readout was the calculated fluorescence ratio (665 nm/620 nm). Values given in percent (%) indicate the percental effect (response) at a certain concentration of agonist relative to the maximum response of the FSH standard.

[1] = target: T2, follicle-stimulating hormone (FSH) receptor (Rattus norvegicus, UniProt P20395); experiment: Rat granulosa EC50 FSH (Assay B); type: cell-based
T2 construct: endogenous in cells; host or cells: rat granulosa cells
T2 sequence (P20395 18-692): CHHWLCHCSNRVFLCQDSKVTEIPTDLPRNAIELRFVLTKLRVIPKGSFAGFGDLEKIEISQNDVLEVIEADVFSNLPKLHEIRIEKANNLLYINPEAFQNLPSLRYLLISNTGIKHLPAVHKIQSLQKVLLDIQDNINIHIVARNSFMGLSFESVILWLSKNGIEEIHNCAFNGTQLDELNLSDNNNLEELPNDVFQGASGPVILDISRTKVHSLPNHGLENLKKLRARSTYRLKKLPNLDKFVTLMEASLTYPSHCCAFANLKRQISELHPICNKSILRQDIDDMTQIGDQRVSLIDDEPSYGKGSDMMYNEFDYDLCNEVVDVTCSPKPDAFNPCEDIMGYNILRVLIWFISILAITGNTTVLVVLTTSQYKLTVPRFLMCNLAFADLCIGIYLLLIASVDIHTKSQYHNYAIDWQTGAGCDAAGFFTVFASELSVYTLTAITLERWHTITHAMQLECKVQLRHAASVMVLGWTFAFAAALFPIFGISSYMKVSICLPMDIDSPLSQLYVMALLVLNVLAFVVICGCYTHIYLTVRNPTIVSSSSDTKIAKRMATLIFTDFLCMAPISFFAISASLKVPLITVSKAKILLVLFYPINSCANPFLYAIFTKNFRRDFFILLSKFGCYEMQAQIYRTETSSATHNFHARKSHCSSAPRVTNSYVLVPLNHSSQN
Description: Example 25. Rat granulosa EC50 FSH (Assay B)
The assay was performed pursuant to the teaching of Yanofsky et al. (2006) Allosteric activation of the follicle-stimulating hormone (FSH) receptor by selective, nonpeptide agonists (JBC 281(19): 13226-13233, which is incorporated by reference in the disclosure of the invention).

Compound	EC50 (FSHR) [nM]	EC50 [1] [nM]
COc1cc2c(cc1-c1nc[nH]n1)-c1c(c(C(=O)N(C)C(C)(C)C)nn1-c1ccsc1)CO2 [Compound 207, N-tert-butyl-7-methoxy-N-methyl-1-(thiophen-3-yl)-8-(1H-1,2,4-triazol-3-yl)-1,4-dihydrochromeno[4,3-c]pyrazole-3-carboxamide]	< 10	101 to 500
COc1cc(OC)cc(-n2nc(C(=O)N3CCOCC3(C)C)c3c2-c2cc(-c4cncc(C#N)c4)c(OC)cc2OC3)c1 [Compound 44, 5-(1-(3,5-dimethoxyphenyl)-3-(3,3-dimethylmorpholine-4-carbonyl)-7-methoxy-1,4-dihydrochromeno[4,3-c]pyrazol-8-yl)nicotinonitrile]	< 10	10 to 100
CONC(=O)c1cncc(-c2cc3c(cc2OC)OCc2c(C(=O)N4CCOCC4(C)C)nn(-c4cc(Cl)cc(Cl)c4)c2-3)c1 [Compound 96, 5-(1-(3,5-dichlorophenyl)-3-(3,3-dimethylmorpholine-4-carbonyl)-7-methoxy-1,4-dihydrochromeno[4,3-c]pyrazol-8-yl)-N-methoxynicotinamide]	< 10	< 10
COc1cc2c(cc1-c1cc(C(N)=O)ccn1)-c1c(c(C(=O)N(C)C(C)(C)C)nn1-c1cc(Cl)cc(Cl)c1)CO2 [Compound 113, N-tert-butyl-8-(4-carbamoylpyridin-2-yl)-1-(3,5-dichlorophenyl)-7-methoxy-N-methyl-1,4-dihydrochromeno[4,3-c]pyrazole-3-carboxamide]	< 10	10 to 100
[2H]C([2H])([2H])Oc1cc(Cl)cc(-n2nc(C(=O)N(C)C(C)(C)C)c3c2-c2cc(-c4cncc(C#N)c4)c(OC([2H])([2H])[2H])cc2OC3)c1 [Compound 36, N-tert-butyl-1-(3-chloro-5-D3-methoxyphenyl)-8-(5-cyanopyridin-3-yl)-7-D3-methoxy-N-methyl-1H,4H-chromeno[4,3-c]pyrazole-3-carboxamide]	< 10	10 to 100
COc1cc2c(cc1-c1cc(C(N)=O)c[n+]([O-])c1)-c1c(c(C(=O)N3CCOCC3(C)C)nn1-c1cc(Cl)cc(Cl)c1)CO2 [Compound 174, 3-carbamoyl-5-(1-(3,5-dichlorophenyl)-3-(3,3-dimethylmorpholine-4-carbonyl)-7-methoxy-1,4-dihydrochromeno[4,3-c]pyrazol-8-yl)pyridine 1-oxide]	< 10	10 to 100
COc1cc(OC)cc(-n2nc(C(=O)N3CC[S+]([O-])CC3(C)C)c3c2-c2cc(-c4ccccn4)c(OC)cc2OC3)c1 (stereo not shown) [Compound 41, (1-(3,5-dimethoxyphenyl)-7-methoxy-8-(pyridin-2-yl)-1,4-dihydrochromeno[4,3-c]pyrazol-3-yl)(S-oxo-3,3-dimethylthiomorpholino)methanone]	10 to 100	101 to 500
COc1cc2c(cc1-c1cncc(C(N)=O)c1)-c1c(c(C(=O)N(C)C(C)(C)C)nn1-c1ccccn1)CO2 [Compound 168]	< 10	101 to 500
COc1cc2c(cc1-c1cccnc1F)-c1c(c(C(=O)N(C)C(C)(C)C)nn1-c1cc(Cl)cc(Cl)c1)CO2 [Compound 3, N-tert-butyl-1-(3,5-dichlorophenyl)-8-(2-fluoropyridin-3-yl)-7-methoxy-N-methyl-1,4-dihydrochromeno[4,3-c]pyrazole-3-carboxamide]	< 10	10 to 100
COc1cc(Cl)cc(-n2nc(C(=O)N3CCOCC3(C)C)c3c2-c2cc(-c4cncc(C#N)c4)c(OC)cc2OC3)c1 [Compound 34, 5-(1-(3-chloro-5-methoxyphenyl)-3-(3,3-dimethylmorpholine-4-carbonyl)-7-methoxy-1,4-dihydrochromeno[4,3-c]pyrazol-8-yl)nicotinonitrile]	< 10	10 to 100
CNC(=O)Cn1nc(C)c(-c2cc3c(cc2OC)OCc2c(C(=O)N(C)C(C)(C)C)nn(-c4cc(Cl)cc(Cl)c4)c2-3)c1C [Compound 140]	< 10	101 to 500
COc1cc2c(cc1-c1cc(F)cc(CO)c1)-c1c(c(C(=O)N(C)C(C)(C)C)nn1-c1cc(Cl)cc(Cl)c1)CO2 [Compound 80, N-tert-butyl-1-(3,5-dichlorophenyl)-8-(3-fluoro-5-(hydroxymethyl)phenyl)-7-methoxy-N-methyl-1,4-dihydrochromeno[4,3-c]pyrazole-3-carboxamide]	< 10	101 to 500
COc1cc2c(cc1-c1cnn(CC(N)=O)c1)-c1c(c(C(=O)N3CCOCC3(C)C)nn1-c1cc(F)cc(Cl)c1)CO2 [Compound 69, 2-(4-(1-(3-chloro-5-fluorophenyl)-3-(3,3-dimethylmorpholine-4-carbonyl)-7-methoxy-1,4-dihydrochromeno[4,3-c]pyrazol-8-yl)-1H-pyrazol-1-yl)acetamide]	< 10	10 to 100
COc1cc2c(cc1-c1c(C)nn(CC(=O)O)c1C)-c1c(c(C(=O)N(C)C(C)(C)C)nn1-c1cc(Cl)cc(Cl)c1)CO2 [Compound 137, 2-(4-(3-(tert-butyl(methyl)carbamoyl)-1-(3,5-dichlorophenyl)-7-methoxy-1,4-dihydrochromeno[4,3-c]pyrazol-8-yl)-3,5-dimethyl-1H-pyrazol-1-yl)acetic acid]	< 10	101 to 500
COc1cc2c(cc1-c1cnn(CC(=O)O)c1)-c1c(c(C(=O)N3CCOCC3(C)C)nn1-c1cc(F)cc(F)c1)CO2 [Compound 88, 2-(4-(1-(3,5-difluorophenyl)-3-(3,3-dimethylmorpholine-4-carbonyl)-7-methoxy-1,4-dihydrochromeno[4,3-c]pyrazol-8-yl)-1H-pyrazol-1-yl)acetic acid]	10 to 100	101 to 500
COc1cc2c(cc1-c1ccn(C)n1)-c1c(c(C(=O)N3CCOCC3(C)C)nn1-c1cc(Cl)cc(Cl)c1)CO2 [Compound 9, (1-(3,5-dichlorophenyl)-7-methoxy-8-(1-methyl-1H-pyrazol-3-yl)-1,4-dihydrochromeno[4,3-c]pyrazol-3-yl)(3,3-dimethylmorpholino)methanone]	< 10	101 to 500
COc1cc2c(cc1-c1c[nH]nn1)-c1c(c(C(=O)N(C)C(C)(C)C)nn1-c1ccsc1)CO2 [Compound 194, N-tert-butyl-7-methoxy-N-methyl-1-(thiophen-3-yl)-8-(1H-1,2,3-triazol-4-yl)-1,4-dihydrochromeno[4,3-c]pyrazole-3-carboxamide]	< 10	> 500
